Assay results: patent US11135211B2, “Pimavanserin for treating impulse control disorder” (ACADIA Pharmaceuticals Inc., priority 2017, dated 2021)

Assays:
[1] = test system: lean, female, Wistar rats; test: Binge-eating on chocolate in rats (BED model); assay type: in vivo
From the text: Carbohydrate and fat ‘comfort foods’, with bingeing on chocolate are known to be associated with eating disorders in humans and in rodents.
BED is, for example, to be studied using lean, female, Wistar rats (weight range 200-250 g at the start of the study) from Charles River, UK. Rats are to be contained in a controlled environment and housed in an appropriate way to perform the study, for example singly-housed in polypropylene cages with wire grid floors to enable food intake of each rat to be recorded. […]
Body weight, food and water intake are to be measured each day throughout the study, for example as described in the following: Animals are to be weighed at weekly intervals after arrival. […] The weights of the jars are to be recorded before and after the 2 h test session. […] The body weight of each rat and its food and water intake are to be measured on every morning of the study; readings are to be taken in the final stage of the light phase at ˜09:45 h. […]
During the training period, an extra food jar (along with the jar containing normal chow) containing chocolate are to be added to the cage for 2 hr/day intermittently, for at least three weeks, using the access schedule above. […] The chocolate and chow consumed during this 2 h period are to be measured. […]

[2] = test system: rats with 6-hydroxydopamine (6OHDA)-induced lesions of the dorsolateral striatum (DLS); test: ICSS-mediated probability discounting (risk-taking) in rat model of PD; assay type: in vivo; conditions: co-administration with pramipexole
From the text: Impulsiveness includes a greater tendency for risk-taking. This tendency can be quantified using probability discounting procedures; a cross-species assessment in which the subject chooses between a small reinforcer (SR) delivered at a high probability, and a large reinforcer (LR) delivered at a low probability. Typically, the subjective value of the LR is discounted when its probability is low, and individuals then select the smaller, yet more certain reinforcer. Those who suffer from ICD are less sensitive to low probabilities than healthy individuals, and they more frequently select the LR even when the odds to obtain the reward are very low (Hendrickson, et al., Effects of mindful eating training on delay and probability discounting for food and money in obese and healthy-weight individuals. Behav. Res. Ther. 51, 399-409, 2013). […]
Rats then will be trained for ICSS followed by probability discounting. […] Pramipexole will be infused for 14 days (optionally a similar time period may be used), during which probability discounting will be assessed each day. Forelimb akinesia will be evaluated before lesion, after lesion, and at various time points during pramipexole administration. […]

PD patients = conditions: cited from earlier work
6-OHDA lesioned rats = test: Forelimb step task (forelimb akinesia) in 6-OHDA lesioned rats; assay type: in vivo; conditions: co-administration with pramipexole
Description: Male Sprague-Dawley (outbred) rats (250-300 g; Harlan Laboratories, Indianapolis, Ind.) are to be pair-housed under environmentally controlled conditions under a 12 h light/dark cycle (lights on at 07:00); food and water are to be available ad libitum.
6-OHDA lesions will be carried out at described previously (Napier et al., Pramipexole-induced increased probabilistic discounting: comparison between a rodent model of Parkinson's disease and controls. Neuropsychopharmacology 37, 1397-1408, 2012). Prior to inducing lesions, desipramine (obtained from Sigma-Aldrich), a norepinephrine reuptake inhibitor, will be administered (25 mg/kg subcutaneously (sc)) to enhance selectivity of 6OHDA for dopamine neurons. Rats were anesthetized with isoflurane and secured in a stereotaxic frame. […]
Rats then will be trained for ICSS followed by probability discounting. […] Pramipexole will be infused for 14 days (optionally a similar time period may be used), during which probability discounting will be assessed each day. Forelimb akinesia will be evaluated before lesion, after lesion, and at various time points during pramipexole administration. […] Probability discounting will be assessed each day of chronic drug treatment; forelimb akinesia will be evaluated before lesion, after lesion, and at various time points during chronic drug administration.

CC(C)COc1ccc(CNC(=O)N(Cc2ccc(F)cc2)C2CCN(C)CC2)cc1 [pimavanserin, N-(1-methylpiperidin-4-yl)-N-(4-fluorophenylmethyl)-N′-(4-(2-methylpropyloxy)phenylmethyl)carbamide]
consumption of standard laboratory diet during the 2 h binge-eating session ([1]; compared to vehicle treated control): no effect
consumption of palatable food (chocolate) in 2 h binge-eating session ([1]; pimavanserin 0.1, 0.5, 1.0, 3.0, 6.0, 10.0 mg/kg po 60 min prior to session): decrease the consumption
risk taking behavior in rats receiving pramipexole (proportion of rats selecting LR) [2]: reduced risk taking behavior
hallucinations and delusions associated with PD (PD patients): control hallucinations and delusions
motor function in PD patients (PD patients): without impacting motor function
motor function in rats receiving pramipexole (6-OHDA lesioned rats): did not alter motor function
